Measurements published in patent publication US6897199B2, “Pharmaceutically acceptable salts of phenoxazine and phenothiazine compounds” (Dr. Reddy's Laboratories Ltd., priority 2001, dated 2005).
Counter-ions that a name gives are not always drawn.

Legend:
[1] = tested on: hypercholesterolemic rat models; assay: Plasma triglyceride and cholesterol lowering activity in hypercholesterolemic rat models; type: in vivo, Male Sprague Dawley rats; details: dose 10 mg/kg orally for 3 days
Experimental: b) Plasma triglyceride and Cholesterol Lowering Activity in Hypercholesterolemic Rat Models
Male Sprague Dawley rats (NIN stock) were bred in DRF animal house. Animals were maintained under 12 hour light and dark cycle at 25±1° C. Rats of 180-200 gram body weight range were used for the experiment. Animals are made hypercholesterolemic by feeding 2% cholesterol and 1% sodium cholate mixed with standard laboratory chow [National Institute of Nutrition (NIN), Hyderabad, India] for 6 days. Throughout the experimental period the animals are maintained on the same diet (Petit, D., Bonnefis, M. T., Rey, C and Infante, R. Effects of ciprofibrate on liver lipids and lipoprotein synthesis in normo- and hyperlipidemic rats. Atherosclerosis. 1988.74: 215-225).
The test compounds were administered orally at a dose 0.1 to 30 mg/kg/day for 3 days. Control group is treated with vehicle alone (0.25% Carboxymethylcellulose; dose 10 ml/kg).
The blood samples were collected in fed state 1 hour after drug administration on 0 and 3 day of compound treatment. The blood was collected from the retro-orbital sinus through heparinised capillary in EDTA containing tubes. After centrifugation, plasma sample is separated for total cholesterol, HDL and triglyceride estimations. Measurement of plasma triglyceride (TG), total cholesterol (TC) and HDL are done using commercial kits (Dr. Reddy's Laboratory, Diagnostic Division, India). LDL and VLDL cholesterol were calculated from the data obtained for total cholesterol, HDL and triglyceride. The reduction of various parameters examined are calculated according to the formula given below.
Formulae for Calculation: • 1. Percent reduction in Blood sugar/triglycerides/total cholesterol were calculated according to the formula: [formula] • OC=Zero day control group value • OT=Zero day treated group value • TC=Test day control group value • TT=Test day treated group value • 2. LDL and VLDL cholesterol levels were calculated according to the formula: [formula] VLDL cholesterol in mg/dl=[Total cholesterol−HDL cholesterol−LDL cholesterol]mg/dl.

hPPARα = target: T1, hPPARα (Homo sapiens, UniProt Q07869); details: compound concentration 50 μM; luciferase activity, HEK-293 cells
T1 sequence (Q07869 239-466 limits assumed): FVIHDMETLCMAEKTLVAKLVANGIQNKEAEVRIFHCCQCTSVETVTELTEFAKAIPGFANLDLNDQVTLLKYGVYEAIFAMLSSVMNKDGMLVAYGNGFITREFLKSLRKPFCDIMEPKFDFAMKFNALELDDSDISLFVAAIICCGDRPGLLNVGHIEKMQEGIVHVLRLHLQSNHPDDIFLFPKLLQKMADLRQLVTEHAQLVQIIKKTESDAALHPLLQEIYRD
Experimental: a) Determination of hPPARα Activity
Ligand binding domain of hPPARα was fused to DNA binding domain of Yeast transcription factor GAL4 in eucaryotic expression vector. Using superfect (Qiagen, Germany) as transfecting reagent HEK-293 cells were transfected with this plasmid and a reporter plasmid harboring the luciferase gene driven by a GAL4 specific promoter. Compound was added at different concentrations after 42 hrs of transfection and incubated overnight.

## CCO[C@@H](Cc1ccc(OCCN2c3ccccc3Oc3ccccc32)cc1)C(=O)O [Example 3, (−)-3-[4-[2-(Phenoxazin-10-yl)ethoxy]phenyl]-2-ethoxypropanoic acid metformin salt]
[1]; LDL cholesterol calculated from TC, HDL and TG
  LDL: 46
[1]; VLDL cholesterol calculated from TC, HDL and TG
  VLDL: 82
[1]; plasma HDL
  HDL: 64
[1]; plasma total cholesterol, percent reduction by formula of b285
  TC: 82
[1]; plasma triglyceride, percent reduction by formula of b285
  TG: 47

## (−)-3-[4-[2-(Phenoxazin-10-yl)ethoxy]phenyl]-2-ethoxypropanoic acid phenylglycinol salt [Example 12]
hPPARα
  PPARα: 3.7
